Here are results for two compounds from article PMC7288058, “Modulating the Properties of Fe(III) Macrocyclic MRI Contrast Agents by Appending Sulfonate or Hydroxyl Groups” (Molecules, 2020).

In one series the test system is Balb/c mice. Description: Dynamic T1-weighted MRI in mice after tail vein injection (4.7 T). Type of series: in vivo. From the text: The two new Fe(III) complexes, Fe(L1)(OH2) and […], and the Gd(III) agent, Gd(DOTA), were studied in Balb/c mice on a small animal 4.7-T MRI scanner upon tail vein injection of the agent (Figure S24, Supplementary Materials). […] Biodistribution and pharmacokinetic clearance of the complexes in mice were monitored by using dynamic MRI.
In vivo imaging studies with the Fe(III) complexes were studied on at 4.7 T Bruker preclinical MRI in mice (BABC/cJ, Jackson Laboratory) in accordance with approved Institutional Animal Care and Use Committee (IACUC) protocols. The samples with a concentration of 0.050, 0.100, and 0.200 mmol [Fe]/kg. The Fe(III) complex stock solutions were adjusted to pH 7.2 by addition of meglumine and were injected intravenously via tail vein. MR data were recorded continuously for up to 1 h. Distribution studies and clearance kinetics were studied by using MR data acquired over several time points for up to 1 h, and additionally at 4 h and 24 h. For comparison, The Food and Drug Administration (FDA)-approved MRI contrast agent gadopentetate dimeglumine (Gd(DTPA), Magnevist®) and gadoterate meglumine (Gd(DOTA), Dotarem®) were injected at 50.0 μmol [Gd]/kg into separate group of mice and imaged as above.

In series [1] the target is T1, human serum albumin (HSA) (Homo sapiens, UniProt P02768).
T1 construct: Albumin from human serum (fatty acid free) was purchased from Sigma-Aldrich; purchased Sigma-Aldrich; host or cells: purified from human serum
Description: Binding to human serum albumin by ultrafiltration / ICP-MS. Type of series: in vitro ADME. Conditions: 0.4 mM complex, HSA 4.5% (w/v) (0.7 mM), 20 mM HEPES pH 7.4, 100 mM NaCl, 37 °C, 20 min. The protocol: Binding of the Fe(III) complexes to human serum albumin (HSA) was studied by using ultrafiltration across a MW 5000 cutoff membrane. The solutions containing HEPES buffer (pH 7.4) and salt NaCl were incubated at 37 °C for 20 min. Solutions contained 0.4 mM Fe(III) complex and 4.5 % (w/v) HSA (0.7 mM). The binding percentages were measured by using ICP-MS to analyze the Fe concentration in the unbound complex solutions after HSA incubation (Table 1). The protein binding for Fe(L3)(OH2) was higher (75%) than for Fe(L1)(OH2) (37%) or Fe(L2) (11%).
The molecular weight of 66,435 Da was used to determine the molar concentrations of HSA. Fe(III) complex (0.400 mM) solutions were incubated with 4.5% (w/v) HSA in 0.100 M NaCl and 20.0 mM HEPES buffer (pH 7.4). All solutions were incubated at 37 °C for 20 min [42]. Aliquots (0.300 mL) were placed in ultra-centrifugal filter units with a 5-kDa membrane and centrifuged at 3500× g for 10 min. The filtrates were used to determine Fe concentration from digested unbound Fe(III) complexes by using ICP-MS.

Values joined by “and” are separate entries in the source; they are usually repeats but may differ in a detail not shown here. Equal values may be shown once.

T1 sequence (P02768 25-609): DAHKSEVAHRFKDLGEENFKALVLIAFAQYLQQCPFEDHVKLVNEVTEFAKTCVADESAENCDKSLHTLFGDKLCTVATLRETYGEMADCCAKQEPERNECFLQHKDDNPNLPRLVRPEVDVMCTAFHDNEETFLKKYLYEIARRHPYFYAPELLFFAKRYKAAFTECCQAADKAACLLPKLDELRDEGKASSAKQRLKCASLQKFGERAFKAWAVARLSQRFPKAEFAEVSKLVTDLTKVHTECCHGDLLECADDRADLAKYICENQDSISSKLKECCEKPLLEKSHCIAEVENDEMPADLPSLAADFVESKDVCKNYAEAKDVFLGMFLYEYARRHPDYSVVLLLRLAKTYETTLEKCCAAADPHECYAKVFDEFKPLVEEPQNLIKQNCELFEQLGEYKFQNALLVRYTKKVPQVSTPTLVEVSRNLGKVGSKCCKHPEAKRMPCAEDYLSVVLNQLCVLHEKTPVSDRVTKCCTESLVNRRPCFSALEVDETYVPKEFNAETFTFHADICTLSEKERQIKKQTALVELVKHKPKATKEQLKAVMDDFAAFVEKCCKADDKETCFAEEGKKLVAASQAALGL

`C[C@H]([O-])CN1CCN(CCCS(=O)(=O)[O-])CCN(C[C@H](C)O)CC1.O.[Fe+3]` [Fe(L1)(OH2)]: the “kidney contrast enhancement in T1-weighted images” value with Balb/c mice (0.20 mmol/kg, 5 min post-injection) is listed as “Enhancement of kidney contrast was observed”. For the same compound, the clearance pathway result in the series on Balb/c mice (Balb/c mice, dynamic MRI) was “cleared predominately by the renal system”. The tolerability in mice entry with Balb/c mice (mouse, in vivo) is “tolerated well”. Moreover, the “HSA Binding (%)” value in series [1] was 37% and 36.8 ± 0.2%.

Consider `C[C@H]([O-])CN1CCN(C[C@H](C)O)CCN(C[C@H](C)O)CC1.[Fe+3]` [Fe(L2)], for which the “T1-weighted contrast enhancement compared with other agents” value in the series on Balb/c mice (healthy mouse, 0.05 mmol/kg, kidneys/blood, up to 45 min) is “slightly more enhanced contrast in kidneys and blood than Fe(L1)(OH2) or the Gd(III) complexes”. In series [1], the “HSA Binding (%)” value was 11% and 11.2 ± 2.8%.
